# Source: US20090137686A1, “Treatment of Ophthalmic Diseases” (priority 2005, published 2009)
# Tested on: IFNγ secretion in whole blood stimulated with heat-killed Staphylococcus epidermidis
# Assay: in vitro whole blood assay stimulated with Staphylococcus epidermidis, measuring IFNγ
# Format: cell-based
# Settings: 24 hours; for inhibitory activity of IFNg secretion resulting from Staphylococcus epidermidis stimulation: IFNγ by ELISA; for IFNγ concentration: at 62.5 nMol test compound, cut from 4500 pg/ml; for inhibition of IFNγ: lowest concentration of 62.5 nMol
# Text: The following experimental work illustrates the invention. This involves an in vitro whole blood assay stimulated with Staphylococcus epidermidis, measuring IFNγ. IFNγ as a key mediator in pathological processes in ocular inflammatory disease, namely age-related macular degeneration (Penfold et al, 2002) and proliferative vitreoretinopathy (El-Ghrably et al, 2001). 1:100 diluted heat-killed Staphylococcus epidermidis in conjunction with various concentrations of test compound (in a stock DMSO solution) was added to a 100-fold volume of whole blood. After 24 hours, whole blood was diluted 1:4 and IFNγ was measured by enzyme-linked immuno-absorptive assay.
Compound,inhibitory activity of IFNg secretion resulting from Staphylococcus epidermidis stimulation,IFNγ concentration [pg/mL],inhibition of IFNγ [%]
"CC(C(O)c1ccc(O)cc1)N1CCC(Cc2ccccc2)CC1 (racemic) [ifenprodil erythro racemate, ifenprodil]",strong inhibitory activity,1500,66
"CC(NCCc1ccc(O)cc1)C(O)c1ccc(O)cc1 (racemic) [ritodrine racemate, ritodrine]",strong inhibitory activity,1500,66
